Consider 9 compounds from ChEMBL document CHEMBL1156593, “Alkamides from the fruits of Piper longum and Piper nigrum displaying potent cell adhesion inhibition” (Bioorg Med Chem Lett, 2008).

Data set [1] has as its target Intercellular adhesion molecule 1 (Homo sapiens) (UniProt P05362). Kind of data set: Inhibition of sICAM1/LFA1 interaction-mediated human THP1 cell adhesion at 12.50 ug/mL after 1 hr by ELISA. It is filed as cell-based. The conditions noted are these: THP-1. For orientation: ELISA stands for enzyme-linked immunosorbent assay.
The target is the same in data set [2]. Kind of data set: Inhibition of sICAM1/LFA1 interaction-mediated human THP1 cell adhesion at 6.25 ug/mL after 1 hr by ELISA. The data set is classed as cell-based. The conditions noted are these: THP-1.
The target is the same in data set [3]. The data set is described as follows: Inhibition of sICAM1/LFA1 interaction-mediated human THP1 cell adhesion at 25 ug/mL after 1 hr by ELISA. The conditions noted are these: THP-1.
The subject of data set [4] is THP-1. The data set is described as follows: Cytotoxicity against human THP1 cells assessed as cell viability at 3.13 to 25.00 ug/mL by MTT assay. It is filed as cell-based. On the technique in general: Formazan colour is commonly taken as a measure of viable cells.
Data set [5] is filed under the species Mus musculus. The data set is described as follows: Antiinflammatory activity in mouse. It is filed as functional, organism-based.
For data set [6], the target named is Intercellular adhesion molecule 1 (Homo sapiens) (UniProt P05362). Kind of data set: Inhibition of sICAM1/LFA1 interaction-mediated human THP1 cell adhesion at 3.13 ug/mL after 1 hr by ELISA. The conditions noted are these: THP-1. The data set is classed as cell-based.

Calls of active or inactive are those of the source. No cut-off for these calls is given here.

Chain of Intercellular adhesion molecule 1 (Homo sapiens) (P05362 whole entry): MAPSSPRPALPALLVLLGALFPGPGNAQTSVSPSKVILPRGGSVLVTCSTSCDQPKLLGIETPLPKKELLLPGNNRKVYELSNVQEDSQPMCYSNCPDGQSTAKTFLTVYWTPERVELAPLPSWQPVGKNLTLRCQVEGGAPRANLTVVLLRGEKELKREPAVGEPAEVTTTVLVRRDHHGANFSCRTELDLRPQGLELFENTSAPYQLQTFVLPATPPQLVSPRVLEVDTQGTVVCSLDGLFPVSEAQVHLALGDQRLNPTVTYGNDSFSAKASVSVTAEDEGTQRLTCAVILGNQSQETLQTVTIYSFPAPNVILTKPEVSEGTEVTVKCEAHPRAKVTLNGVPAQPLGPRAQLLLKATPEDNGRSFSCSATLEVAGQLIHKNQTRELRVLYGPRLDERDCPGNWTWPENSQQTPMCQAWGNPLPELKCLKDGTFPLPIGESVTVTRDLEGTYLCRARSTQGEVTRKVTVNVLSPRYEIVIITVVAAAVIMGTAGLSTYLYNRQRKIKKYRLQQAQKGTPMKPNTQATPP

In the case of `CC(C)CNC(=O)/C=C/CCCC/C=C/c1ccc2c(c1)OCO2` [RETROFRACTAMIDE C], the inhibition (as a rule, the drop in the measured response relative to a control, in per cent) in data set [1] turned out to be 35.9%; in data set [2], 29.9%; in data set [3] it was 36%. The Activity entry in data set [4] is listed as “Non-toxic”. For the same compound, the result in data set [5] was Active. In addition, the outcome in data set [6] was inactive.
Regarding `CCCCC/C=C/C=C/C(=O)NCC(C)C` [PELLITORIN], the inhibition in data set [1] came to 46.4%; in data set [2], 16.5%; in data set [3], 80.6%; in data set [6], 11.3%. Further, in data set [4], the Activity result is “Non-toxic”. In addition, in data set [5], the result was Active.
As to `CC[C@H](C)C(=O)O[C@H]1C[C@@H](C)C=C2C=C[C@H](C)[C@H](CC[C@@H]3C[C@@H](O)CC(=O)O3)[C@H]21`, the results for the inhibition in data set [1] and in data set [2] were 61.4% and 37.7%, respectively. In addition, the result in data set [3] and in data set [6] was inactive.
In the case of `O=C(/C=C/C=C/CC/C=C/c1ccc2c(c1)OCO2)N1CCCCC1` [DEHYDROPIPERNOLINE], the inhibition in data set [1] turned out to be 57.7%; in data set [2] it was 52.5%; in data set [3] it was 73.4%; in data set [6], 30.1%. Besides, in data set [4], the Activity entry was “Non-toxic”. Further, in data set [5], the outcome was Active.
Regarding `CC(C)CNC(=O)/C=C/C=C/CCCCCC/C=C/c1ccc2c(c1)OCO2` [GUINEENSINE], the values for the inhibition in data set [1], in data set [2] and in data set [3] were 31.7%, 14.9% and 36.8%, respectively. Moreover, the Activity entry in data set [4] is “Non-toxic”. Besides, the outcome in data set [5] was Active. Further, in data set [6], the outcome was inactive.
As to `O=C(/C=C/C=C\CC/C=C/c1ccc2c(c1)OCO2)N1CCCCC1`, the inhibition in data set [1] came to 58.4%; in data set [2], 13.1%; in data set [3], 92.1%. In addition, in data set [4], the Activity entry was “Non-toxic”. In addition, the outcome in data set [5] was Active. In addition, in data set [6], the result was inactive.
On to `O=C(CCCCCC/C=C/c1ccc2c(c1)OCO2)N1CCCCC1` [PIPERROLEIN B], for which the inhibition in data set [1] was 46.5%; in data set [2], 28.5%; in data set [3], 67.6%; in data set [6] it was 16.2%. Moreover, the Activity result in data set [4] is recorded as “Non-toxic”. In addition, the result in data set [5] was Active.
Consider `CC(C)CNC(=O)/C=C/CCCCCC/C=C/c1ccc2c(c1)OCO2` [PIPERCHABAMIDE D], for which the inhibition was 26.9% in data set [1], 20.9% in data set [2], 42.6% in data set [3] and 15.6% in data set [6]. Further, the Activity result in data set [4] is “Non-toxic”. Further, the outcome in data set [5] was Active.
`O=C(/C=C/CCCC/C=C/c1ccc2c(c1)OCO2)N1CCCCC1` [PIPERNONALINE]: the inhibition was determined as 70.2% in data set [1], 36.8% in data set [2], 93.8% in data set [3] and 12.5% in data set [6]. Besides, the Activity result in data set [4] is recorded as “Non-toxic”. Also, the outcome in data set [5] was Active.
